# Legend:
# VIOTR [1] = assay: Post-emergence action against VIOTR; type: in vivo, Viola tricolor; conditions: post-emergence, dosage 80 g/ha
# Procedure, shortened: (§1)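 Weeds grown in sandy loam in greenhouse, treated at one-leaf stage (2–3 weeks after sowing) with WP or EC formulations sprayed as aqueous suspension/emulsion at 600 to […] water with 0.2% wetting agent. Visual rating after about 3 weeks versus untreated controls, as % herbicidal action (100% = plants dead, 0% = like control).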
# CYPES [2] = assay: Pre-emergence action against CYPES; type: in vivo, Cyperus esculentus; conditions: pre-emergence, dosage 320 g/ha, scored visually after 3 weeks vs untreated controls
# Procedure, shortened: (§2)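 Seeds sown in sandy loam in wood-fiber pots and covered with soil. Greenhouse growth; visual damage scored after 3 weeks versus untreated controls (100% = dead, 0% = like control).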
# SETVI [3] = assay: Pre-emergence action against SETVI; type: in vivo, Setaria viridis; conditions: pre-emergence, dosage 320 g/ha, scored visually after 3 weeks vs untreated controls
# Procedure, shortened: as §2
# CYPES [4] = assay: Post-emergence action against CYPES; type: in vivo, Cyperus esculentus; conditions: post-emergence, dosage 80 g/ha, visual assessment about 3 weeks after treatment vs untreated controls
# Procedure, shortened: as §1
# ALOMY = assay: Pre-emergence action against ALOMY; type: in vivo, Alopecurus myosuroides; conditions: dosage 320 g/ha, pre-emergence, scored visually after 3 weeks vs untreated controls, 100% = plants have died, 0% = like control plants
# Procedure, shortened: as §2
# VERPE [5] = assay: Post-emergence action against VERPE; type: in vivo, Veronica persica; conditions: dosage 80 g/ha
# Procedure, shortened: as §1
# STEME [6] = assay: Pre-emergence action against STEME; type: in vivo, Stellaria media; conditions: Dosage 320 g/ha, pre-emergence
# Procedure, shortened: as §2
# MATIN [7] = assay: Post-emergence action against MATIN; type: in vivo, Matricaria inodora; conditions: post-emergence, dosage 80 g/ha, visual assessment about 3 weeks after treatment vs untreated controls
# Procedure, shortened: as §1
# ECHCG [8] = assay: Post-emergence action against ECHCG; type: in vivo, Echinochloa crus-galli; conditions: post-emergence, dosage 80 g/ha, visual assessment about 3 weeks after treatment vs untreated controls
# Procedure, shortened: as §1
# AMARE [9] = assay: Post-emergence action against AMARE; type: in vivo, Amaranthus retroflexus; conditions: post-emergence, dosage 80 g/ha, visual assessment about 3 weeks after treatment vs untreated controls
# Procedure, shortened: as §1
# VERPE [10] = assay: Pre-emergence action against VERPE; type: in vivo, Veronica persica; conditions: Dosage 320 g/ha, pre-emergence
# Procedure, shortened: as §2
# MATIN [11] = assay: Pre-emergence action against MATIN; type: in vivo, Matricaria inodora; conditions: Dosage 320 g/ha, pre-emergence
# Procedure, shortened: as §2
# ECHCG [12] = assay: Pre-emergence action against ECHCG; type: in vivo, Echinochloa crus-galli; conditions: pre-emergence, dosage 320 g/ha, scored visually after 3 weeks vs untreated controls
# Procedure, shortened: as §2
# ABUTH [13] = assay: Post-emergence action against ABUTH; type: in vivo, Abutilon theophrasti; conditions: post-emergence, dosage 80 g/ha, visual assessment about 3 weeks after treatment vs untreated controls
# Procedure, shortened: as §1
# LOLMU = assay: Pre-emergence action against LOLMU; type: in vivo, Lolium multiflorum; conditions: dosage 320 g/ha, scored visually after 3 weeks vs untreated controls
# Description: Seeds of monocotyledonous and dicotyledonous weed plants and crop plants are laid out in sandy loam soil in wood-fiber pots and covered with soil. The compounds of the invention, formulated in the form of wettable powders (WP) or as emulsion concentrates (EC), are then applied to the surface of the covering soil in the form of an aqueous suspension or emulsion at a water application rate equating to […], with addition of 0.2% wetting agent. After the treatment, the pots are placed in a greenhouse and kept under good growth conditions for the trial plants. The damage to the test plants is scored visually after a test period of 3 weeks by comparison with untreated controls (herbicidal activity in percent (%): 100% activity=the plants have died, 0% activity=like control plants).
# PHBPU [14] = assay: Post-emergence action against PHBPU; type: in vivo, Pharbitis purpurea; conditions: post-emergence, dosage 80 g/ha
# Procedure, shortened: as §1
# ABUTH [15] = assay: Pre-emergence action against ABUTH; type: in vivo, Abutilon theophrasti; conditions: pre-emergence, dosage 320 g/ha, scored visually after 3 weeks vs untreated controls
# Procedure, shortened: as §2
# SETVI [16] = assay: Post-emergence action against SETVI; type: in vivo, Setaria viridis; conditions: post-emergence, dosage 80 g/ha, visual assessment about 3 weeks after treatment vs untreated controls
# Procedure, shortened: as §1
# POLCO [17] = assay: Pre-emergence action against POLCO; type: in vivo, Polygonum convolvulus; conditions: Dosage 320 g/ha, pre-emergence
# Procedure, shortened: as §2
# VIOTR [18] = assay: Pre-emergence action against VIOTR; type: in vivo, Viola tricolor; conditions: Dosage 320 g/ha, pre-emergence
# Procedure, shortened: as §2
# AVEFA = assay: Pre-emergence action against AVEFA; type: in vivo, Avena fatua; conditions: dosage 320 g/ha, scored visually after 3 weeks vs untreated controls
# Procedure, shortened: as §2
# PHBPU [19] = assay: Pre-emergence action against PHBPU; type: in vivo, Pharbitis purpurea; conditions: Dosage 320 g/ha, pre-emergence
# Procedure, shortened: as §2
# POLCO [20] = assay: Post-emergence action against POLCO; type: in vivo, Polygonum convolvulus; conditions: post-emergence, dosage 80 g/ha
# Procedure, shortened: as §1
# STEME [21] = assay: Post-emergence action against STEME; type: in vivo, Stellaria media; conditions: post-emergence, dosage 80 g/ha
# Procedure, shortened: as §1
# AMARE [22] = assay: Pre-emergence action against AMARE; type: in vivo, Amaranthus retroflexus; conditions: pre-emergence, dosage 320 g/ha, scored visually after 3 weeks vs untreated controls
# Procedure, shortened: as §2
compound,measurement,setting,value
CCn1nnnc1NC(=O)c1ccc(C(F)(F)F)c(C(C)=O)c1SC [2-58],Post-emergence action against VIOTR,VIOTR [1],100
same,Pre-emergence action against CYPES (herbicidal activity),CYPES [2],100%
same,"SETVI (Table B8, pre-emergence herbicidal activity)",SETVI [3],100%
same,Post-emergence action against CYPES (herbicidal action in percent),CYPES [4],90%
same,Pre-emergence action against ALOMY (herbicidal activity in percent),ALOMY,100%
same,Post-emergence action against VERPE,VERPE [5],100
same,Pre-emergence action against STEME,STEME [6],90%
same,Post-emergence action against MATIN (herbicidal action in percent),MATIN [7],100%
same,Post-emergence action against ECHCG (herbicidal action in percent),ECHCG [8],90%
same,Post-emergence action against AMARE (herbicidal action in percent),AMARE [9],100%
same,Pre-emergence action against VERPE,VERPE [10],100%
same,Pre-emergence action against MATIN,MATIN [11],100%
same,Pre-emergence action against ECHCG (herbicidal activity),ECHCG [12],100%
same,Post-emergence action against ABUTH (herbicidal action in percent),ABUTH [13],100%
same,Pre-emergence action against LOLMU (herbicidal activity),LOLMU,90%
same,Post-emergence action against PHBPU,PHBPU [14],100
same,Pre-emergence action against ABUTH (herbicidal activity),ABUTH [15],100%
same,Post-emergence action against SETVI (herbicidal action in percent),SETVI [16],100%
same,Pre-emergence action against POLCO,POLCO [17],100%
same,Pre-emergence action against VIOTR,VIOTR [18],100%
same,Pre-emergence action against AVEFA (herbicidal activity),AVEFA,90%
same,Pre-emergence action against PHBPU,PHBPU [19],80%
same,Post-emergence action against POLCO,POLCO [20],90
same,Post-emergence action against STEME,STEME [21],100
same,Pre-emergence action against AMARE (herbicidal activity),AMARE [22],100%
"CCn1nnnc1NC(=O)c1ccc(C(F)(F)F)c(C(C)=O)c1Cl [2-137, 3-acetyl-2-chloro-N-(1-ethyl-1H-tetrazol-5-yl)-4-(trifluoromethyl)benzamide]",pest or weed control at 80 g/ha,"VIOTR [1]; Viola tricolor, 504 h",100%
same,pest or weed control at 320 g/ha,"CYPES [2]; Cyperus esculentus, 504 h, read-out: Pre-emergence action against CYPES (herbicidal activity)",100%
same,pest or weed control at 320 g/ha,"SETVI [3]; Setaria viridis, 504 h, read-out: SETVI (Table B8, pre-emergence herbicidal activity)",100%
same,pest or weed control at 80 g/ha,"CYPES [4]; Cyperus esculentus, 504 h, read-out: Post-emergence action against CYPES (herbicidal action in percent)",90%
same,pest or weed control at 320 g/ha,"ALOMY; Alopecurus myosuroides, 504 h, read-out: Pre-emergence action against ALOMY (herbicidal activity in percent)",90%
same,pest or weed control at 80 g/ha,"VERPE [5]; Veronica persica, 504 h",90%
same,pest or weed control at 320 g/ha,"STEME [6]; Stellaria media, 504 h",90%
same,pest or weed control at 80 g/ha,"MATIN [7]; Tripleurospermum inodorum, 504 h, read-out: Post-emergence action against MATIN (herbicidal action in percent)",100%
same,pest or weed control at 80 g/ha,"ECHCG [8]; Echinochloa crus-galli, 504 h, read-out: Post-emergence action against ECHCG (herbicidal action in percent)",90%
same,pest or weed control at 80 g/ha,"AMARE [9]; Amaranthus retroflexus, 504 h, read-out: Post-emergence action against AMARE (herbicidal action in percent)",100%
same,pest or weed control at 320 g/ha,"VERPE [10]; Veronica persica, 504 h",90%
same,pest or weed control at 320 g/ha,"MATIN [11]; Tripleurospermum inodorum, 504 h",100%
same,pest or weed control at 320 g/ha,"ECHCG [12]; Echinochloa crus-galli, 504 h, read-out: Pre-emergence action against ECHCG (herbicidal activity)",100%
same,pest or weed control at 80 g/ha,"ABUTH [13]; Abutilon theophrasti, 504 h, read-out: Post-emergence action against ABUTH (herbicidal action in percent)",90%
same,pest or weed control at 320 g/ha,"LOLMU; Lolium multiflorum, 504 h, read-out: Pre-emergence action against LOLMU (herbicidal activity)",80%
same,pest or weed control at 80 g/ha,"PHBPU [14]; Ipomoea purpurea, 504 h",90%
same,pest or weed control at 320 g/ha,"ABUTH [15]; Abutilon theophrasti, 504 h, read-out: Pre-emergence action against ABUTH (herbicidal activity)",100%
same,pest or weed control at 80 g/ha,"SETVI [16]; Setaria viridis, 504 h, read-out: Post-emergence action against SETVI (herbicidal action in percent)",100%
same,pest or weed control at 320 g/ha,"POLCO [17]; Fallopia convolvulus, 504 h",90%
same,pest or weed control at 320 g/ha,"VIOTR [18]; Viola tricolor, 504 h",100%
same,pest or weed control at 320 g/ha,"AVEFA; Avena fatua, 504 h, read-out: Pre-emergence action against AVEFA (herbicidal activity)",90%
same,pest or weed control at 80 g/ha,"POLCO [20]; Fallopia convolvulus, 504 h",90%
same,pest or weed control at 80 g/ha,"STEME [21]; Stellaria media, 504 h",100%
same,pest or weed control at 320 g/ha,"AMARE [22]; Amaranthus retroflexus, 504 h, read-out: Pre-emergence action against AMARE (herbicidal activity)",100%
CCn1nnnc1NC(=O)c1ccc(C(F)(F)F)c(C(C)=O)c1Br [2-195],Post-emergence action against VIOTR,VIOTR [1],100
same,Pre-emergence action against CYPES (herbicidal activity),CYPES [2],100%
same,"SETVI (Table B8, pre-emergence herbicidal activity)",SETVI [3],100%
same,Post-emergence action against CYPES (herbicidal action in percent),CYPES [4],90%
same,Pre-emergence action against ALOMY (herbicidal activity in percent),ALOMY,90%
same,Pre-emergence action against STEME,STEME [6],100%
same,Post-emergence action against MATIN (herbicidal action in percent),MATIN [7],90%
same,Post-emergence action against ECHCG (herbicidal action in percent),ECHCG [8],90%
same,Pre-emergence action against VERPE,VERPE [10],100%
same,Pre-emergence action against MATIN,MATIN [11],100%
same,Pre-emergence action against ECHCG (herbicidal activity),ECHCG [12],100%
same,Post-emergence action against ABUTH (herbicidal action in percent),ABUTH [13],80%
same,Pre-emergence action against LOLMU (herbicidal activity),LOLMU,80%
same,Post-emergence action against PHBPU,PHBPU [14],90
same,Pre-emergence action against ABUTH (herbicidal activity),ABUTH [15],100%
same,Post-emergence action against SETVI (herbicidal action in percent),SETVI [16],90%
same,Pre-emergence action against POLCO,POLCO [17],90%
same,Pre-emergence action against VIOTR,VIOTR [18],100%
same,Pre-emergence action against AVEFA (herbicidal activity),AVEFA,90%
same,Pre-emergence action against PHBPU,PHBPU [19],80%
same,Post-emergence action against POLCO,POLCO [20],90
same,Post-emergence action against STEME,STEME [21],90
same,Pre-emergence action against AMARE (herbicidal activity),AMARE [22],100%

# Source: patent US11051515B2, “3-acyl-benzamides and their use as herbicides” (Bayer Aktiengesellschaft, priority 2017, dated 2021)
